Laboratory results as given in patent publication US20210299094A1, “METHODS OF UPREGULATING TIPARP AS ANTICANCER STRATEGIES” (CORNELL UNIVERSITY, priority 2018, published 2021).
Where two headings read alike, the source gives them in different places. One block for each compound: values may come before it. Where a SMILES comes first, the peptide text is derived from it. The star is where a group is joined. Cbz = O=C(OCc1ccccc1)*

Tests used:
[1] = tested on: SKBR3 (ER neg.); assay: IC50 in SKBR3 (ER neg.) cell line; type: cell-based; settings: Homo sapiens, SK-BR-3
[2] = tested on: BT549 (ER negative); assay: IC50 in BT549 (ER negative) cell line; type: cell-based; settings: Homo sapiens, BT-549
[3] = tested on: MDA-MB-468 (ER negative); assay: IC50 in MDA-MB-468 (ER negative) cell line; type: cell-based; settings: Homo sapiens
[4] = tested on: MCF-7 (ER pos.); assay: IC50 in MCF-7 (ER pos.) cell line; type: cell-based; settings: Homo sapiens, MCF7
[5] = tested on: MDA-MB-231 (ER negative); assay: IC50 in MDA-MB-231 (ER negative) cell line; type: cell-based; settings: Homo sapiens
[6] = tested on: HME1 (normal mammary epithelial cell); assay: IC50 in HME1 (normal mammary epithelial cell); type: cell-based
[7] = tested on: HCT116; assay: IC50 in HCT116 cell line; type: cell-based; settings: Homo sapiens, HCT-116
[8] = tested on: TiPARP mRNA; assay: RT-PCR analysis of TiPARP mRNA level in HEK 293T treated with hypoxia-mimetic agents; type: cell-based, human; settings: FIG. 1C
From the text: FIGS. 1A-1F. TiPARP is a direct target gene of HIFs. (A) A schematic representation of TiPARP promoter. Core sequence of hypoxia-response element (HRE) is highlighted in red. (B) Expression of TiPARP mRNA in HCT116 and MCF-7 cells analyzed by qRT-PCR under normoxia/hypoxia (mean and s.d. of three independent experiments). (C) RT-PCR analysis of TiPARP mRNA level in HEK 293T treated with hypoxia-mimetic agent DMOG and DFO, or transfected with HA tagged HIF-1α. Expression of endogenous or HA-HIF-1α was detected by HIF-1α antibody on western blot (bottom), (D) Schematic representation of the luciferase reporter construct with wild type (WT) or mutated (Mut) HRE. (E) HIF-1α transactivation measured by luciferase reporter with WT or mutant HRE from TiPARP promoter. Transfection efficiencies were normalized to co-transfected Renilla-luciferase. Mean and standard deviation (s.d.) correspond to four technical replicates, representative of three independent experiments. NS, not significant. (F) ChIP assay assessing the chromatin binding of HIF-1α to HRE in TiPARP promoter, RNA polymerase II (Pol II) was used as a positive control.
TiPARP was previously characterized as a TCDD-responsive gene regulated by AHR (Ma, Q. Arch Biochem Biophys 404, 309-316 (2002); Ma, Q. et al, Biochem Biophys Res Commun 289, 499-506, (2001)). […]

[9] = tested on: cMyc protein levels; assay: cMyc protein levels in TiPARP-overexpressing HCT 116C cells with protease inhibitor treatment; type: cell-based, human; settings: 20 μM, over 2 hours, FIG. 10B
From the text: FIGS. 10A-10E. (A) Overexpression of active TiPARP decreases cMyc protein levels. […] (B) TiPARP regulates cMyc protein levels by regulating the protein degradation pathway. […] (D) Knockdown of TiPARP in HCT116 cells caused ERα protein levels to increase. (E) Knockdown of TiPARP in MCF-7 cells caused ERα protein levels to increase.
The inventors also observed that overexpression of active TiPARP decreases cMyc protein levels.
The inventors also discovered the TiPARP regulates cMyc protein levels by regulating the protein degradation pathway.

[10] = tested on: TiPARP mRNA
Experimental: (§1) Quantitative Real Time PCR (qRT-PCR)
(§2) Total RNA. was isolated using RNeasy Mini kit (Qiagen) according to the manufacturer's instructions. 0.2 μg sample of total RNA was employed for cDNA synthesis using the Superscript III First-Strand Synthesis kit (Invitrogen) following the manufacturer's instructions. For quantitative real-time PCR analysis, iTaq Universal SYBR Green Supermix (Bio-Rad) was used following the manufacturer's instructions. The reaction was performed with QuantStudio™ 7 Flex Real-Time PCR System (APPLIED BIOSYSTEMS™). In each run, melt curve analysis was performed to ensure the amplification of a single product. The relative expression of each gene, normalized to actin, was calculated using the 2^−ΔΔCt method. The following primers were used for qRT-PCR: VEGF: 5′-[…]-3′ (SEQ ID NO: 24) and 5′-[…]-3′ (SEQ ID NO: 25); GLUT1: 5′-[…] CTAAA-3′ (SEQ ID NO: 26) and 5′˜[…]-3′ (SEQ ID NO: 27); PDK1: 5′-[…]-3′ (SEQ ID NO: 28) and 5′-[…]-3′ (SEQ ID NO: 29); WSBJ: 5′-[…]-3′ (SEQ ID NO: 30) and 5′-[…]-3′ (SEQ ID NO: 31); LDHA: 5′-[…]-3′ (SEQ ID NO: 32) and 5′-[…] CAG-3′ (SEQ ID NO: 33); CXCR4: 5′-[…]-3′ (SEQ ID NO: 34) and 5′-[…]-3′ (SEQ ID NO: 35); TIPARP: 5′-[…]-3′ (SEQ ID NO: 36) and 5′-[…]-3′ (SEQ ID NO: 37), ACTIN: 5′-[…]-3′ (SEQ ID NO: 38) and 5′-[…]-3′ (SEQ ID NO: 39).

[11] = tested on: TiPARP mRNA; remark: listed apart in the source
Experimental: as §1, §2

[12] = tested on: MCF-7; assay: Growth inhibition IC50 in MCF-7 cells, control vs TiPARP knockdown; type: cell-based; settings: Homo sapiens
Experimental: (§3) For transient overexpression of proteins of interest, cells were transfected with expression vectors using FuGene 6 (Promega, E2691) according to the manufacturer's protocol. To stably knock down TiPARP, lentivirus was produced by transfecting HEK 293T cells with pCMV-ΔR8.2 (packaging vector), pM2D.G (envelope vector) and shRNAs (Sigma). Virus-containing medium was harvested 24 hr after transfection. Target ceils were seeded in a 6-well plate 20 hr prior to transduction (3×10^5 cells per well). At the confluence of 50%, target cells were transduced with virus particles in medium supplemented with 5 μg/ml polybrene (Sigma), and incubated for 6 hr. Remove supernatant and add fresh medium to the cells. 72 hr after infection, 2 μg/mL puromycin was added to the cell culture media for 10 days to select stably transduced target cells.
(§4) IC50 values for Biochanin A was measured in HCT116, SKBR3 and MCF-7 cell lines where TiPARP was knocked down.

[13] = tested on: TiPARP mRNA; remark: listed apart in the source
Experimental: as §1, §2

[14] = tested on: HCT116; assay: Growth inhibition IC50 in HCT116 cells, control vs TiPARP knockdown; type: cell-based; settings: Homo sapiens
Experimental: as §3, §4

[15] = tested on: SKBR3; assay: Growth inhibition IC50 in SKBR3 cells, control vs TiPARP knockdown; type: cell-based; settings: Homo sapiens
Experimental: as §3, §4

[16] = tested on: TiPARP mRNA; settings: human
Experimental: as §1, §2

SMILES: CC(=O)N(O)CCCCCNC(=O)CCC(=O)N(O)CCCCCNC(=O)CCC(=O)N(O)CCCCCN [DFO, desferrioxamine]
TiPARP mRNA level [8]: increased

SMILES: CC(C)C[C@@H](C=O)NC(=O)[C@H](CC(C)C)NC(=O)[C@H](CC(C)C)NC(=O)OCc1ccccc1 [MG132] (Cbz-Leu-Leu-Leu-aldehyde)
effect on TiPARP-overexpression-induced decrease of cMyc protein levels [9]: effectively blocked the effect of TiPARP overexpression

SMILES: COc1ccc(-c2coc3cc(O)cc(O)c3c2=O)cc1 [Biochanin A]
IC50 [1]: 20 µM
TiPARP mRNA fold induction ([10]; human): 2.5 fold
TiPARP mRNA fold induction ([11]; human): 5.6 fold
IC50 ([12]; MCF7, MCF-7, Ctrl): 93.4 µM
IC50 ([12]; MCF7, MCF-7, TiPARP KD (40%)): 174 µM
IC50 [4]: 19.7 µM
TiPARP mRNA fold induction ([13]; human): 8.8 fold
IC50 ([14]; HCT-116, HCT116, Ctrl): 30 µM
IC50 ([14]; HCT-116, HCT116, TiPARP KD (40%)): 54.8 µM
IC50 ([15]; SK-BR-3, SKBR3, Ctrl): 52.3 µM
IC50 ([15]; SK-BR-3, SKBR3, TiPARP KD (40%)): 83.3 µM
IC50 [7]: 20 µM

SMILES: COC(=O)CNC(=O)C(=O)OC [DMOG, dimethyloxalylglycine]
TiPARP mRNA level [8]: increased

More lines, main results first:

IC50 [1]: 35.3 µM
IC50 [2]: 23.1 µM
IC50 [3]: 97.3 µM
IC50 [4]: 27.7 µM
IC50 [5]: 90.4 µM
IC50 [7]: 46 µM
SMILES: Oc1ccc(C=Cc2cc(O)cc(O)c2)cc1 [Resveratrol, resveratrol]
IC50 [6]: 189 µM

IC50 [1]: 45 µM
TiPARP mRNA fold induction ([10]; human): 8.0 fold
IC50 [2]: 32.1 µM
TiPARP mRNA fold induction ([11]; human): 3.3 fold
IC50 [3]: 13.5 µM
TiPARP mRNA fold induction [16]: 3.2 fold
IC50 [4]: 31 µM
IC50 [5]: 47.9 µM
TiPARP mRNA fold induction ([13]; human): 4.2 fold
IC50 [7]: 39 µM
SMILES: c1ccc2c(Cc3c[nH]c4ccccc34)c[nH]c2c1 [Diindolylmethane, diindolylmethane]
IC50 [6]: 51.2 µM

TiPARP mRNA fold induction [10]: 1.4 fold
TiPARP mRNA fold induction [11]: 1.5 fold
TiPARP mRNA fold induction [13]: 1.4 fold
SMILES: OCc1c[nH]c2ccccc12 [indole-3-carbinol]

TiPARP mRNA fold induction [10]: 2.3 fold
TiPARP mRNA fold induction [11]: 1.7 fold
TiPARP mRNA fold induction [13]: 2.5 fold
SMILES: COc1ccc(-c2coc3cc(O)ccc3c2=O)cc1 [Formonometin, formonometin]

TiPARP mRNA fold induction ([10]; human): 1.7 fold
TiPARP mRNA fold induction ([11]; human): 0.81 fold
TiPARP mRNA fold induction ([13]; human): 2.3 fold
SMILES: COc1ccc2[nH]c([S+]([O-])Cc3ncc(C)c(OC)c3C)nc2c1 (stereo not drawn) [Omerprazole, omeprazole]
